Data from patent US20110009335A1, “Anticancer Treatments” (priority 2008, published 2011).
Starred links: 1 amine or outer side, 2 acyl side, 3 side chain; linkers in the order of their positions; H or OH if unused. Positions of bridges follow the written chain, without caps; N, C: chain ends. Non-standard residues stand in square brackets, D forms with d. Residues, ends and D or L forms follow the SMILES beside them. *: point of attachment. X1 = CC[C@H](C)[C@@H](N[*:1])[C@@H](O)CC(=O)O[C@H](C(=O)[C@H](C)C(=O)[*:2])C(C)C; NMeY = CN[C@@H](Cc1ccc(O)cc1)C(=O)O; dNMeL = CN[C@H](CC(C)C)C(=O)O; Pyruvoyl = CC(=O)C(=O)*

Tests used:
Assay type in all cases: in vivo
[1] = system: MRI-H-121 human renal tumor xenograft; assay: Aplidine with temsirolimus, MRI-H-121 xenograft in athymic nude mice (Example 3); settings: for % Inhibition G2: aplidine 0.06 mg/kg/day; for antitumor activity as single agent (monotherapy): doses tested, temsirolimus 10 and 20 mg/kg/day
Description: (§1) Female athymic nude mice (Harlan Sprague Dawley, Madison, Wis.) were utilized for all experiments. Mice were implanted with tumor fragments when mice were 5 weeks of age. Animals were housed in ventilated rack caging, 5 mice per cage, with food and water ad libitum. The mice were acclimated for 1 week prior to being implanted with tumor fragments.
Tumor measurements were determined as disclosed in Example 1. When tumor growth was within an average size range of 95±1.6 mg (mean±SD), mice were randomized into the treatment and control groups based on tumor weight by using LabCat® In Life module V 8.0 SP1 tumor tracking and measurement software.
(§2) Body weights were recorded on treatment days and when tumor sizes were measured. In those days wherein the two drugs were administered the same day, the combination therapy groups were treated by co-administering the two drugs at the same time, with no attempt to sequence the treatments.
(§3) Aplidine was provided in the form of vials of lyophilized aplidine powder which was reconstituted in Cremophor EL/ethanol/water (CEW) 15/15/70 to a concentration of 0.5 mg/ml. The aplidine solution in CEW was diluted in 0.9% Saline to the dosing formulation concentrations, being the final proportion of CEW of 0.18/0.18/0.84.
Temsirolimus was provided in the form of vials containing a non-aqueous, ethanolic, sterile solution of temsirolimus, 25 mg/ml. […] Then, the solution was further diluted in 0.9% Saline to the dosing formulation concentrations.
Tumor size measurements were recorded twice weekly from the treatment initiation until the termination of the study. Tumor growth inhibition was assessed comparing the mean tumor weight between the two agents in combination (aplidine and temsirolimus) against temsirolimus mean tumor weight at the different concentrations assayed.
(§4) Mean, standard deviation and standard error of the mean were determined for tumor volume for all animal groups at all assessments. Student's t test was performed on tumor volumes at each measurement day, including at the end of the study, to determine whether there were any statistically significant differences between combination treatment groups and single monotherapy treatment groups.
The definition and criteria for the evaluation of potentiation and the degree of additivity for the combination therapy were the same as those disclose in Example 1.

[2] = system: MRI-H-121 human renal tumor xenograft; assay: Aplidine with sorafenib, MRI-H-121 xenograft in athymic nude mice (Example 1); settings: for antitumor activity as single agent (monotherapy): doses and schedules tested, sorafenib 60 or 30 mg/kg/day
Description: as §1, with “fragments or a cell suspension” for “fragments”, “fragments or cell suspensions.” for “fragments.”
(§5) Tumor measurements were determined by using Vernier calipers. The formula to calculate volume for a prolate ellipsoid was used to estimate tumor volume (mm^3) from 2-dimensional tumor measurements: Tumor volume (mm^3)=[L×W^2]÷2, where L is the length and it is the longest diameter in mm, and W is the width and it is the shortest diameter in mm of a tumor. Assuming unit density, volume was converted to weight (i.e., 1 mm^3=1 mg).
as §2
as §3, with “Then the” for “The”
(§6) Tumor size measurements were recorded twice weekly from the treatment initiation until the termination of the study.
as §4
(§7) Determine the % of tumor growth inhibition, as 100−% T/C, for each of the drugs administered as monotherapy at the doses used in the combinations. % T/C was obtained by comparing the mean tumor weight in the treatment groups (T) to the mean tumor weight in the control group (C) (T/C×100%). • 2. The two scores were added together to determine the “expected response” if each agent produced the same response as it did when administered as monotherapy. • 3. This “expected response” was subtracted from the % of tumor growth inhibition determined for the combination therapy group: • a. A negative number meant that the effect of combining the two drugs was less than additive. • b. If the resulting number was close to zero, the effect of combining the two drugs was determined as additive. • c.

[3] = system: A498 human renal tumor xenograft; assay: Aplidine with sorafenib, A498 xenograft in athymic nude mice (Example 1)
Description: as §1, with “fragments or a cell suspension” for “fragments”, “fragments or cell suspensions.” for “fragments.”
A498 cells were grown in MEM, 2 mM L-glutamine and 10% FBS. Cells from in vitro passage 4-20 were implanted SC into study mice: 5×10^6 cells/mouse in 0.2 ml 50% Matrigel/50% medium without antibiotics or serum, using a 23 G needle and 1 cc syringe. Matrigel is a biological extracellular matrix that is liquid at 4° C. and solid at 37° C., and it promotes tumor growth by maintaining the cells in close association in a localized area. Bacterial cultures were performed on aliquots of the cells prepared for implantation.
as §5, §2
as §3, with “Then the” for “The”
as §6, §4, §7

[4] = aplidine 0.040 and/or sorafenib 30 mg/kg/day
[5] = aplidine 0.060 and/or sorafenib 60 mg/kg/day

Compound: CC[C@H](C)[C@H]1NC(=O)[C@@H](NC(=O)[C@@H](CC(C)C)N(C)C(=O)[C@@H]2CCCN2C(=O)C(C)=O)[C@@H](C)OC(=O)[C@H](Cc2ccc(OC)cc2)N(C)C(=O)[C@@H]2CCCN2C(=O)[C@H](CC(C)C)NC(=O)[C@@H](C)C(=O)[C@H](C(C)C)OC(=O)C[C@@H]1O [aplidine, dehydrodidemnin B] (Pyruvoyl-P[dNMeL]T[X1]LP[NMeY](Me); ester 3-C)
- % Inhibition G2 ([1]; day 12): 1.7%
- % Inhibition G2 ([1]; day 15): −9.0%
- % Inhibition G2 ([1]; day 19): 15.1%
- % Inhibition G2 ([1]; day 22): 6.0%
- % Inhibition G2 ([1]; day 27): 13.7%
- % Inhibition G2 ([1]; day 30): 2.5%
- % Inhibition G2 ([1]; day 34): 3.0%
- % Inhibition G2 ([1]; day 37): 5.0%
- % Inhibition G2 ([1]; day 40): −7.6%
- % Inhibition G2 ([1]; day 47): −1.6%
- antitumor activity as single agent (monotherapy) [1]: refractory
- % T/C on day 14 [2, 4]: 103.5%
- % T/C on day 16 [2, 4]: 104.0%
- % T/C on day 20 [2, 4]: 85.1%
- % T/C on day 23 [2, 4]: 85.9%
- % T/C on day 27 [2, 4]: 94.1%
- % T/C on day 30 [2, 4]: 86.4%
- % T/C on day 34 [2, 4]: 91.0%
- % T/C on day 37 [2, 4]: 85.6%
- % T/C on day 41 [2, 4]: 92.5%
- % T/C on day 44 [2, 4]: 93.9%
- % T/C on day 48 [2, 4]: 94.9%
- % T/C on day 14 [2, 5]: 102.0%
- % T/C on day 16 [2, 5]: 97.5%
- % T/C on day 20 [2, 5]: 81.5%
- % T/C on day 23 [2, 5]: 73.9%
- % T/C on day 27 [2, 5]: 98.4%
- % T/C on day 30 [2, 5]: 88.5%
- % T/C on day 34 [2, 5]: 75.8%
- % T/C on day 37 [2, 5]: 75.0%
- % T/C on day 41 [2, 5]: 88.3%
- % T/C on day 44 [2, 5]: 90.2%
- % T/C on day 48 [2, 5]: 95.5%
- antitumor activity as single agent (monotherapy) [2]: refractory
- % T/C on day 26 [3, 4]: 100.8%
- % T/C on day 29 [3, 4]: 84.6%
- % T/C on day 33 [3, 4]: 78.7%
- % T/C on day 36 [3, 4]: 74.8%
- % T/C on day 40 [3, 4]: 90.2%
- % T/C on day 43 [3, 4]: 65.1%
- % T/C on day 47 [3, 4]: 89.8%
- % T/C on day 50 [3, 4]: 71.5%
- % T/C on day 54 [3, 4]: 86.7%
- % T/C on day 61 [3, 4]: 89.5%
- % T/C on day 26 [3, 5]: 96.8%
- % T/C on day 29 [3, 5]: 72.3%
- % T/C on day 33 [3, 5]: 71.0%
- % T/C on day 36 [3, 5]: 77.0%
- % T/C on day 40 [3, 5]: 85.3%
- % T/C on day 43 [3, 5]: 78.6%
- % T/C on day 47 [3, 5]: 86.5%
- % T/C on day 50 [3, 5]: 82.6%
- % T/C on day 54 [3, 5]: 90.9%
- % T/C on day 61 [3, 5]: 87.8%
- antitumor activity as single agent (monotherapy) ([3]; doses and schedules tested): did not reach the NCI criteria for activity

Compound: CNC(=O)c1cc(Oc2ccc(NC(=O)Nc3ccc(Cl)c(C(F)(F)F)c3)cc2)ccn1 [sorafenib]
- % T/C on day 14 [2, 4]: 99.7%
- % T/C on day 16 [2, 4]: 85.6%
- % T/C on day 20 [2, 4]: 62.1%
- % T/C on day 27 [2, 4]: 78.7%
- % T/C on day 30 [2, 4]: 72.0%
- % T/C on day 34 [2, 4]: 66.1%
- % T/C on day 37 [2, 4]: 72.5%
- % T/C on day 41 [2, 4]: 79.5%
- % T/C on day 44 [2, 4]: 77.6%
- % T/C on day 48 [2, 4]: 76.1%
- % T/C on day 14 [2, 5]: 103.8%
- % T/C on day 16 [2, 5]: 85.0%
- % T/C on day 20 [2, 5]: 66.5%
- % T/C on day 23 [2, 5]: 71.7%
- % T/C on day 27 [2, 5]: 70.4%
- % T/C on day 30 [2, 5]: 75.6%
- % T/C on day 34 [2, 5]: 69.6%
- % T/C on day 37 [2, 5]: 71.1%
- % T/C on day 41 [2, 5]: 74.7%
- % T/C on day 44 [2, 5]: 71.0%
- % T/C on day 48 [2, 5]: 71.8%
- antitumor activity as single agent (monotherapy) [2]: did not reach the NCI criteria for activity
- % T/C on day 26 [3, 4]: 97.0%
- % T/C on day 29 [3, 4]: 97.4%
- % T/C on day 33 [3, 4]: 76.6%
- % T/C on day 36 [3, 4]: 84.2%
- % T/C on day 40 [3, 4]: 98.7%
- % T/C on day 43 [3, 4]: 70.1%
- % T/C on day 47 [3, 4]: 91.2%
- % T/C on day 50 [3, 4]: 85.9%
- % T/C on day 54 [3, 4]: 105.9%
- % T/C on day 61 [3, 4]: 89.6%
- % T/C on day 26 [3, 5]: 97.4%
- % T/C on day 29 [3, 5]: 87.8%
- % T/C on day 33 [3, 5]: 80.2%
- % T/C on day 36 [3, 5]: 68.6%
- % T/C on day 40 [3, 5]: 82.9%
- % T/C on day 43 [3, 5]: 51.4%
- % T/C on day 47 [3, 5]: 74.9%
- % T/C on day 50 [3, 5]: 71.1%
- % T/C on day 54 [3, 5]: 78.7%
- % T/C on day 61 [3, 5]: 81.3%

Compound: CO[C@H]1C[C@@H]2CC[C@@H](C)[C@@](O)(O2)C(=O)C(=O)N2CCCC[C@H]2C(=O)O[C@H]([C@H](C)C[C@@H]2CC[C@@H](OC(=O)C(C)(CO)CO)[C@H](OC)C2)CC(=O)[C@H](C)/C=C(\C)[C@@H](O)[C@@H](OC)C(=O)[C@H](C)C[C@H](C)/C=C/C=C/C=C/1C [temsirolimus]
- antitumor activity as single agent (monotherapy) [1]: very sensitive
- % Inhibition G3 ([1]; temsirolimus 10 mg/kg/day, day 12): 4.2%
- % Inhibition G3 ([1]; temsirolimus 10 mg/kg/day, day 15): 37.8%
- % Inhibition G3 ([1]; temsirolimus 10 mg/kg/day, day 19): 57.7%
- % Inhibition G3 ([1]; temsirolimus 10 mg/kg/day, day 22): 54.3%
- % Inhibition G3 ([1]; temsirolimus 10 mg/kg/day, day 27): 61.7%
- % Inhibition G3 ([1]; temsirolimus 10 mg/kg/day, day 30): 63.1%
- % Inhibition G3 ([1]; temsirolimus 10 mg/kg/day, day 34): 67.4%
- % Inhibition G3 ([1]; temsirolimus 10 mg/kg/day, day 37): 64.2%
- % Inhibition G3 ([1]; temsirolimus 10 mg/kg/day, day 40): 57.5%
- % Inhibition G3 ([1]; temsirolimus 10 mg/kg/day, day 47): 56.2%
- % Inhibition G3 ([1]; temsirolimus 20 mg/kg/day, day 12): 2.3%
- % Inhibition G3 ([1]; temsirolimus 20 mg/kg/day, day 15): 33.2%
- % Inhibition G3 ([1]; temsirolimus 20 mg/kg/day, day 19): 58.5%
- % Inhibition G3 ([1]; temsirolimus 20 mg/kg/day, day 22): 64.9%
- % Inhibition G3 ([1]; temsirolimus 20 mg/kg/day, day 27): 72.6%
- % Inhibition G3 ([1]; temsirolimus 20 mg/kg/day, day 30): 71.5%
- % Inhibition G3 ([1]; temsirolimus 20 mg/kg/day, day 34): 73.7%
- % Inhibition G3 ([1]; temsirolimus 20 mg/kg/day, day 37): 71.6%
- % Inhibition G3 ([1]; temsirolimus 20 mg/kg/day, day 40): 71.5%
- % Inhibition G3 ([1]; temsirolimus 20 mg/kg/day, day 47): 73.0%
